Results: ChEMBL document CHEMBL4831518, “Structure-aided optimization of non-nucleoside M. tuberculosis thymidylate kinase inhibitors” (Eur J Med Chem, 2021)
Converted amounts (≈) assume the structure as drawn.

Tests used:
[1] = system: Mycobacterium tuberculosis; experiment: Antibacterial activity against Mycobacterium tuberculosis H37Rv harboring Tap deletion mutant assessed as inhibition of bacterial growth incubated for 6 hrs by microdilution assay; assay type: functional
[2] = system: Mycobacterium tuberculosis; experiment: Antibacterial activity against Mycobacterium tuberculosis H37Rv harboring mmr deletion mutant assessed as inhibition of bacterial growth incubated for 6 hrs by microdilution assay; assay type: functional

Row | SMILES | MIC [1] | MIC [2]
1 | COc1ccc(Oc2cccc(CN3CCC(n4cc(C)c(=O)[nH]c4=O)CC3)c2)cc1 | 31.25 µg/mL (≈ 74.1 µM) | 15.6 µg/mL (≈ 37 µM)
2 | Cc1ccc(Oc2cccc(CN3CCC(n4cc(C)c(=O)[nH]c4=O)CC3)c2)cc1 | 15.6 µg/mL (≈ 38.5 µM) | 15.6 µg/mL (≈ 38.5 µM)
3 | Cc1cn(C2CCN(Cc3cccc(Oc4ccccc4)n3)CC2)c(=O)[nH]c1=O | >250 µg/mL | >250 µg/mL
4 | Cc1cn(C2CCN(Cc3ccnc(Oc4cccc(Cl)c4)c3)CC2)c(=O)[nH]c1=O | 31.25 µg/mL (≈ 73.2 µM) | 31.25 µg/mL (≈ 73.2 µM)
5 | Cc1cn(C2CCN(Cc3cccc(Oc4cc(Cl)cc(Cl)c4)c3)CC2)c(=O)[nH]c1=O | 15.6 µg/mL (≈ 33.9 µM) | 15.6 µg/mL (≈ 33.9 µM)
